Reference: ChEMBL document CHEMBL6092202, “4-Anilinoquinazoline Derivatives as the First Potent NOD1-RIPK2 Signaling Pathway Inhibitors at the Nanomolar Range” (J Med Chem, 2024)
pIC50: −log10 of the molar value. In brackets after ≈: the same amount, converted by molar mass. Activity calls are given as the source filed them. No cut-off for these calls is given here.

Assays:
[1] = biological target: T1, Nucleotide-binding oligomerization domain-containing protein 1 (Homo sapiens, UniProt Q9Y239); assay: (§1) Inhibition of human NOD1 expressed in HEK-Blue hNOD1 cells coexpressing NF-kappaB-inducible SEAP reporter gene assessed as inhibition of NF-kappaB transcriptional activity by measuring decrease in SEAP activity preincubated for 30 mins followed by C12-iE-DAP addition and measured after 18 hrs by absorbance based spectrophotometric analysis; format: cell-based
T1 sequence (Q9Y239 whole entry): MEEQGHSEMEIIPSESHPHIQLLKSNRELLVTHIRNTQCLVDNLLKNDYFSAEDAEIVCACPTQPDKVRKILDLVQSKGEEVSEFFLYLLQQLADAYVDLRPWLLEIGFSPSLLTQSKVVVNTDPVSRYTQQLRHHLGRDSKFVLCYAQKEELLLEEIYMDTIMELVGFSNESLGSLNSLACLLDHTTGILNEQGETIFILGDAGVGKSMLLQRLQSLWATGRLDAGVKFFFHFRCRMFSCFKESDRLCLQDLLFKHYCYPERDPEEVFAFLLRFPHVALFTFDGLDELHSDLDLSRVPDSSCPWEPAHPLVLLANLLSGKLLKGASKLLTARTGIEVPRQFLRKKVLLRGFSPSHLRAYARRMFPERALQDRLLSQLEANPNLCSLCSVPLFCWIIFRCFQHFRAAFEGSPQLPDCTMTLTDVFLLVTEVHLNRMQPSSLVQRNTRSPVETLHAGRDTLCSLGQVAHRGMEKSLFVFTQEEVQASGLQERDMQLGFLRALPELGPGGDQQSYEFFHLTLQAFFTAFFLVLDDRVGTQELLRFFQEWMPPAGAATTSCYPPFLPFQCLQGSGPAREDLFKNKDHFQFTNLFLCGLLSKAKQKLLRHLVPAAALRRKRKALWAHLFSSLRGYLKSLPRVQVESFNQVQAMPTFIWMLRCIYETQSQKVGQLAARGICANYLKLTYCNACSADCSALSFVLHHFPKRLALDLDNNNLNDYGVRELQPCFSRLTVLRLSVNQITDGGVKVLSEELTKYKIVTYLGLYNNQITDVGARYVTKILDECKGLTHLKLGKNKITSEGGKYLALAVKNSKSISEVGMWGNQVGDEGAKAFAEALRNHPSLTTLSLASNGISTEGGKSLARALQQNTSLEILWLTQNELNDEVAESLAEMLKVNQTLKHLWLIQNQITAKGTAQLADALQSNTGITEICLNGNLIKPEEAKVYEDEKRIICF

[2] = biological target: Nucleotide-binding oligomerization domain-containing protein 2 (Homo sapiens, UniProt Q9HC29); assay: as §1, with “NOD2” for “NOD1”, “hNOD2” for “hNOD1”; format: cell-based
[3] = test system: Huh-7; assay: Cytotoxicity against human Huh-7 cells assessed as reduction in cell viability at 1 uM measured after 72 hrs by celltiter 96 aqueous one solution cell proliferation assay; format: toxicity, cell-based; conditions: huh-7, 72 h
[4] = Cytotoxicity against human THP1-Blue NF-kappaB cells assessed as reduction in cell viability at 1 uM measured after 72 hrs by celltiter 96 aqueous one solution cell proliferation assay; format: toxicity, cell-based
[5] = Cytotoxicity against HEK-Blue hNOD1 cells assessed as reduction in cell viability at 1 uM measured after 72 hrs by celltiter 96 aqueous one solution cell proliferation assay; format: toxicity, cell-based; conditions: human, hek-blue hnod1, 72 h
[6] = biological target: Epidermal growth factor receptor (Homo sapiens, UniProt P00533); assay: Inhibition of recombinant EGFR (unknown origin) using PGT as substrate preincubated for 10 mins followed by substrate addition and measured after 1 hr in presence of ATP by ADP-Glo luminescence assay
[7] = Inhibition of recombinant VEGFR (unknown origin) using PGT as substrate preincubated for 10 mins followed by substrate addition and measured after 1 hr by ADP-Glo luminescence assay; set-up: species or system Homo sapiens
[8] = biological target: Receptor-interacting serine/threonine-protein kinase 2 (Homo sapiens, UniProt O43353); assay: Inhibition of human recombinant RIPK2 (1 to 317 residues) expressed in Sf21 insect cells using MBP as substrate preincubated for 10 mins followed by substrate addition and measured after 1 hr by ADP-Glo luminescence assay
[9] = Metabolic stability in liver microsomes (unknown origin) assessed as intrinsic clearance; format: ADME, Microsome; conditions: read-out: CLH
[10] = Metabolic stability in liver microsomes (unknown origin) assessed as half life; format: ADME, Microsome
[11] = Solubility of the compound in PBS buffer at pH 7.4; format: physicochemical
[12] = Stability in plasma (unknown origin) assessed as half life; format: ADME, cell-free
[13] = Lipophilicity, logD of compound at pH 7.4; format: physicochemical; conditions: buffer
[14] = test system: HEK-Blue hNOD1; assay: Anti-inflammatory activity in HEK-Blue hNOD1 cells assessed as reduction in C12-iE-DAP stimulated IL-8 secretion at 0.01 to 1 uM preincubated for 1 hr followed by C12-iE-DAP addition and measured after 22 hrs by fluorescence based analysis; format: functional, cell-based; conditions: Homo sapiens, dose 0.01-1 µM, time 23.0 hrs

Epidermal growth factor receptor, sequence (P00533 whole entry): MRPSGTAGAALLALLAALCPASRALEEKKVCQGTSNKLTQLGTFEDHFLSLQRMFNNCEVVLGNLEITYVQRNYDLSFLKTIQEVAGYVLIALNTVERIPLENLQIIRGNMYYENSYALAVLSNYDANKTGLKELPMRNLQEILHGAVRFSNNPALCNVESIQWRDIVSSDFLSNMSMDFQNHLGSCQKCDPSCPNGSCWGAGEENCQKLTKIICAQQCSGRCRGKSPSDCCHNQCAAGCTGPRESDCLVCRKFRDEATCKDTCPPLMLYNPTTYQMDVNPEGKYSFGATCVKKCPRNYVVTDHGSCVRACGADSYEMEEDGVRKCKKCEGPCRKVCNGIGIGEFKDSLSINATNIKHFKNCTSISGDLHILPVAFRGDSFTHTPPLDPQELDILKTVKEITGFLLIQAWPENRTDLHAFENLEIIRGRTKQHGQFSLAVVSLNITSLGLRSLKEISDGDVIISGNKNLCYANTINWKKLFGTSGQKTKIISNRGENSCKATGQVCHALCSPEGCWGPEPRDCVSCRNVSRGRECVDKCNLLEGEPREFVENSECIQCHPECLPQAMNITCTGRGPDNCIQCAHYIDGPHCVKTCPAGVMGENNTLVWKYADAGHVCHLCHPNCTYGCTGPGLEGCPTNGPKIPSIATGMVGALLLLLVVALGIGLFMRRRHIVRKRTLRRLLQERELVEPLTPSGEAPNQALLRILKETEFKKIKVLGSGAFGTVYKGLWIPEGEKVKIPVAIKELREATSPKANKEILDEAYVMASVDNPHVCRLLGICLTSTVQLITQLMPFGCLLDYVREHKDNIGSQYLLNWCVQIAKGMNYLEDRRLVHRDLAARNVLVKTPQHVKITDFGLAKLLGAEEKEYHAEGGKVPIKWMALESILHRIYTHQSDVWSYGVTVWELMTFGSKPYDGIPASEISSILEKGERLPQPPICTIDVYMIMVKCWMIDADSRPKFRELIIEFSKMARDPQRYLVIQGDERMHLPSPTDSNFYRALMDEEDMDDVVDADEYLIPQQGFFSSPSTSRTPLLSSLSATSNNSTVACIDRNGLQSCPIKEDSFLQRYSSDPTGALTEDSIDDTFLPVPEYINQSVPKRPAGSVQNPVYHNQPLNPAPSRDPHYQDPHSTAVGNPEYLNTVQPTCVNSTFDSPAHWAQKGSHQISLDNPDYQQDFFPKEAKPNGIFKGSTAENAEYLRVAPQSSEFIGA
Nucleotide-binding oligomerization domain-containing protein 2, sequence (Q9HC29 whole entry, the tested form may be a part): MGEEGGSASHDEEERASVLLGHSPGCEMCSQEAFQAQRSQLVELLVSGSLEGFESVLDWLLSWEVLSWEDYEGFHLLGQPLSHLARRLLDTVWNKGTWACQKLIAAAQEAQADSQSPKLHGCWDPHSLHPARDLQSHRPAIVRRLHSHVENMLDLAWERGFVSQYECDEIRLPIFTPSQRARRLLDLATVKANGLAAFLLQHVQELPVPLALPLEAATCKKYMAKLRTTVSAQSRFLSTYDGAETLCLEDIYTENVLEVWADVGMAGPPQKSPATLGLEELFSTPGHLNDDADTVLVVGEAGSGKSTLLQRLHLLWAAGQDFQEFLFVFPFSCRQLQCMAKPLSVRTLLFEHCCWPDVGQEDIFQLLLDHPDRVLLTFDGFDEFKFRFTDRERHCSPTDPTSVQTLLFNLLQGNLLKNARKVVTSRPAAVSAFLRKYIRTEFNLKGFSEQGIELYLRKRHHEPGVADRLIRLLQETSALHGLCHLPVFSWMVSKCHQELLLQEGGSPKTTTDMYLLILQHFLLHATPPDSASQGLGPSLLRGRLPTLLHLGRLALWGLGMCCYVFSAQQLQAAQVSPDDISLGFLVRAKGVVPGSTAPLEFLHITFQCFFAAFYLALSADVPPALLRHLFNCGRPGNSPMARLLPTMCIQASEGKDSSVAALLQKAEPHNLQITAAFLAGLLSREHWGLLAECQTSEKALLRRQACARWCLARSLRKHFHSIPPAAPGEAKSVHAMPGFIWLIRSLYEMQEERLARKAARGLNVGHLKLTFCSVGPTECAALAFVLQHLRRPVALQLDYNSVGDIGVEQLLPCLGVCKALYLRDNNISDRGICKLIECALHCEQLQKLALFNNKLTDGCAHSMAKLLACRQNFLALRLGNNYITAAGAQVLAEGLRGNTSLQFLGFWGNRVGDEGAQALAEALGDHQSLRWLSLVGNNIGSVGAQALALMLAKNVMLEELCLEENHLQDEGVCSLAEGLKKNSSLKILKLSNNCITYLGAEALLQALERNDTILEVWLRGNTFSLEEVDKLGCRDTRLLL
Receptor-interacting serine/threonine-protein kinase 2, sequence (O43353 whole entry, the tested form may be a part): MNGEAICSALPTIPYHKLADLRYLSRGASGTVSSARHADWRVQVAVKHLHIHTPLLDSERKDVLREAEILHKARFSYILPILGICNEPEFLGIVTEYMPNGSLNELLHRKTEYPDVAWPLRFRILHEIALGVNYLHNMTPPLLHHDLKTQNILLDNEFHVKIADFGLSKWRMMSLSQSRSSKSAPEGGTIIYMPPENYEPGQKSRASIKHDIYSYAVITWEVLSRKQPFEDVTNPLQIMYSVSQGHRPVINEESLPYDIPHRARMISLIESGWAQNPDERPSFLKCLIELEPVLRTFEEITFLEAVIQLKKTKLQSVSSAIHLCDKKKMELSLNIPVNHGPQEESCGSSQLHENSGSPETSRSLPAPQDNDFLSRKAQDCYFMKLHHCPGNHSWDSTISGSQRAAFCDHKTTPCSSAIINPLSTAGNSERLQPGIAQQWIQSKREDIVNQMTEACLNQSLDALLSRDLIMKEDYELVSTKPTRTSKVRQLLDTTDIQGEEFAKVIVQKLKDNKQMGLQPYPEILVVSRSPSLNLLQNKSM

Row | Structure (SMILES) | pIC50 [1] | pIC50 [2] | other results
1 | COc1cc2ncnc(Nc3n[nH]c(C)c3C)c2cc1OC | < 5.00 | < 5.00 | –
2 | CCCS(=O)(=O)Nc1cc(-c2cc(-c3ccc(N4CCNCC4)cc3)cnc2N)cc(F)c1OC | – | 6.66 | pIC50 [8]: 8.71
3 | COc1cc(Nc2ncnc3cc(OC)c(OC)cc23)ccc1Cl | – | < 5.00 | –
4 | CCN(CC)CCOc1cc2ncnc(Nc3cc(OC)c(Cl)cc3Cl)c2cc1OC | 7.38 | < 5.00 | Activity [3]: Non-toxic; Activity [4]: Non-toxic; Activity [5]: Non-toxic; microsomal CLint [9]: 29 µL/min/mg; half-life [10]: > 0.667 h; pIC50 [6]: < 6.00; pIC50 [7]: < 6.00; solubility [11]: 31 µM (≈ 14.4 µg/mL); half-life [12]: > 6 h; logD [13]: 0.88
5 | COc1cc2ncnc(Nc3ccc(F)c(Cl)c3)c2cc1OCCCN1CCOCC1 [GEFITINIB] | 6.22 | 5.97 | Activity [3]: Non-toxic; Activity [4]: Non-toxic; Activity [5]: Non-toxic
6 | COc1cc2ncnc(Nc3ccc(Br)cc3F)c2cc1OC | 6.26 | < 5.00 | –
7 | COc1cc2ncnc(Nc3cccc(Cl)c3)c2cc1OC | < 5.00 | < 5.00 | –
8 | COc1cc2ncnc(Nc3ccccc3)c2cc1OC | < 5.00 | < 5.00 | –
9 | COc1ccc(Cl)c(Nc2ncnc3cc(OC)c(OC)cc23)c1 | 6.16 | < 5.00 | –
10 | COc1cc2ncnc(Nc3n[nH]c4ccc(F)cc34)c2cc1OC | – | < 5.00 | –
11 | CCN(CC)CCOc1ccc2c(Nc3cc(OC)c(Cl)cc3Cl)ncnc2c1 | – | < 5.00 | –
12 | CCN(CC)CCOc1cc2c(Nc3cc(OC)c(Cl)cc3Cl)ncnc2cc1OC | – | < 5.00 | –
13 | COc1cc2ncnc(Nc3cccc(N)c3)c2cc1OC | < 5.00 | < 5.00 | –
14 | COc1cc2ncnc(Nc3ccc(Cl)c(O)c3)c2cc1OC.Cl | 7.48 | < 5.00 | Activity [3]: Non-toxic; Activity [4]: Non-toxic; Activity [5]: Non-toxic; pIC50 [6]: 9.08; pIC50 [7]: 8.86
15 | COc1cc2ncnc(Nc3ccc(Cl)c(Cl)c3)c2cc1OC | – | < 5.00 | –
16 | Cc1ccc(S(=O)(=O)n2c(N)nc3ccccc32)cc1 | – | < 5.00 | Activity [14]: inactive; pIC50 [8]: < 6.00
17 | COCCOc1cc2ncnc(Nc3cc(OC)c(Cl)cc3Cl)c2cc1OCCOC | – | < 5.00 | –

Continued, in another order:

Row | pIC50 [1] | pIC50 [2] | Structure (SMILES) | other results
18 | – | < 5.00 | COc1cc2ncnc(Nc3ccc(F)c(O)c3)c2cc1OC | Activity [3]: Non-toxic; Activity [4]: Non-toxic; Activity [5]: Non-toxic; pIC50 [6]: 8.59; pIC50 [7]: 8.52
19 | – | < 5.00 | COc1cc(Nc2ncnc3cc(OC)c(OC)cc23)c(F)cc1Br | –
20 | – | < 5.00 | COc1cc2ncnc(Nc3ccccc3Cl)c2cc1OC | –
21 | 5.87 | < 5.00 | COc1cc2ncnc(Nc3ccc(F)c(Cl)c3)c2cc1OC | –
22 | < 5.00 | < 5.00 | COc1cc2ncnc(Nc3ccc(Cl)cc3Cl)c2cc1OC | –
23 | – | < 5.00 | COc1cc2ncnc(Nc3ccc4scnc4c3)c2cc1OC.Cl | Activity [3]: Non-toxic; Activity [4]: Non-toxic; Activity [5]: Non-toxic; pIC50 [6]: 7.44
24 | – | < 5.00 | COc1cc2ncnc(Nc3cc(N)ccn3)c2cc1OC | –
25 | – | < 5.00 | COc1cc2ncnc(-n3nc(N)c4cc(F)ccc43)c2cc1OC | –
26 | – | < 5.00 | COc1cc(Nc2ncnc3c(OC)c(OC)c(OC)cc23)c(Cl)cc1Cl | –
27 | 6.80 | < 5.00 | COc1cc2ncnc(Nc3cccc(O)c3)c2cc1OC | –
28 | 6.55 | < 5.00 | COc1cc2ncnc(Nc3ccc(Cl)cc3)c2cc1OC | –
29 | – | < 5.00 | COc1cc2ncnc(Nc3ccncc3)c2cc1OC | –
30 | – | < 5.00 | COc1cc(Nc2ncnc3cc(OC)c(OC)cc23)c(Cl)cc1Cl | Activity [3]: Non-toxic; Activity [4]: Non-toxic; Activity [5]: Non-toxic; pIC50 [6]: 7.21
31 | – | < 5.00 | COc1cc2ncnc(Nc3cc(Br)ccc3Br)c2cc1OC | –
32 | – | < 5.00 | COc1cc2ncnc(Nc3ccc(Br)c(O)c3)c2cc1OC | –
33 | < 5.00 | < 5.00 | COc1cc2ncnc(Nc3cc(O)c(Cl)cc3Cl)c2cc1OC | –
34 | – | < 5.00 | COc1cc2ncnc(Nc3ccc(Cl)c(N)c3)c2cc1OC | Activity [3]: Non-toxic; Activity [4]: Non-toxic; Activity [5]: Non-toxic; pIC50 [6]: 9.34
